The results in this text go back to patent publication US20260070945A1, “MACROCYCLIC IMMUNOMODULATORS” (Bristol-Myers Squibb Company, priority 2022, published 2026).

Where a SMILES comes first, the peptide text is derived from it. Bridges are numbered along the chain shown (N, C = ends). [ ]: non-standard residue; d: D form. The star is where a group is joined. ξ: configuration not given here. Phe(4-COOH) = N[C@@H](Cc1ccc(C(=O)O)cc1)C(=O)O; Bip = N[C@@H](Cc1ccc(-c2ccccc2)cc1)C(=O)O; Phe(3-Me) = Cc1cccc(C[C@H](N)C(=O)O)c1; Cha = N[C@@H](CC1CCCCC1)C(=O)O; Cit = NC(=O)NCCC[C@H](N)C(=O)O; Ile(3ξ) = CCC(C)[C@H](N)C(=O)O; Thr(3ξ) = CC(O)[C@H](N)C(=O)O; Carboxymethyl = O=C(O)C*; NMeA = CN[C@@H](C)C(=O)O; Aun = NCCCCCCCCCCC(=O)O; Dab = NCC[C@H](N)C(=O)O; Dap = NC[C@H](N)C(=O)O; AEEA = NCCOCCOCC(=O)O

The target of the test is T1, PD-1/PD-L1 interaction (PE-labeled human PD-L1-Ig binding to Jurkat cell line over-expressing human PD-1) (Homo sapiens, UniProt Q15116).
T1 construct: expressed in transfected cells; host or cells: Jurkat
T1 sequence (Q15116 25-288): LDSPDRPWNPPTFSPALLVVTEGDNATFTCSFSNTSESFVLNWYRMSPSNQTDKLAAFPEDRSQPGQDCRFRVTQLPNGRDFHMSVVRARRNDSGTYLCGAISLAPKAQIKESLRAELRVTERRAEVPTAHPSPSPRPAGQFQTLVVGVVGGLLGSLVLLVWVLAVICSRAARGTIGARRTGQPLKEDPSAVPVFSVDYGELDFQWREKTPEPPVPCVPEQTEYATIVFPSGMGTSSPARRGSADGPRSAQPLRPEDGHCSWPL
The test is described as follows: Jurkat-PD-1 Cell Binding High-Content Screening Assay (CBA). Particulars: Jurkat-hPD-1 cells, PE-labeled PD-L1-Ig 20 nM final; read-out: Jurkat HPD1 PDL1 IC50. The essentials:
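In this imaging assay, cells in 10% FCS medium see compound for 2 h at 37 °C and then labeled ligand at 20 nM final for 1 h. Paraformaldehyde fixation, Hoechst 33342 staining and dPBS washes precede image capture.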
Turning to `Cc1cccc(C[C@@H]2NC(=O)[C@H](CC(=O)O)NC(=O)[C@H](Cc3ccc(C(=O)O)cc3)NC(=O)[C@H](Cc3ccc(OCC(=O)O)cc3)NC(=O)CSC[C@@H](C(=O)N[C@@H](CCN)C(=O)NCCCCCCCCCCC(=O)O)NC(=O)[C@H](C(C)O)NC(=O)[C@H](C(C)C)NC(=O)[C@H](CC3CCCCC3)NC(=O)[C@H](CCN)NC(=O)[C@@H](CC(C)C)NC(=O)[C@H](C)N(C)C(=O)[C@H](C(C)C)NC(=O)[C@H](Cc3ccc(-c4ccccc4)cc3)NC(=O)[C@H](CC(C)C)NC2=O)c1` (stereo partly drawn) [Example 2323] ({CH2CO}-Y(Carboxymethyl)[Phe(4-COOH)]D[Phe(3-Me)]L[Bip]V[NMeA][dL][Dab][Cha]V[Thr(3ξ)]C[Dab][Aun]-OH; thioether N-14), the IC50 was 25.6 nM.
The result for `Cc1cccc(C[C@@H]2NC(=O)[C@H](CC(=O)O)NC(=O)[C@H](Cc3ccc(C(=O)O)cc3)NC(=O)[C@H](Cc3ccc(OCC(=O)O)cc3)NC(=O)CSC[C@@H](C(=O)N[C@@H](CCN)C(=O)NCCCCCCCCCCC(=O)O)NC(=O)[C@H](C(C)O)NC(=O)[C@H](C(C)C)NC(=O)[C@H](CC3CCCCC3)NC(=O)[C@H](CCN)NC(=O)[C@@H](CC(C)C)NC(=O)[C@H](C)N(C)C(=O)[C@H](CCCNC(N)=O)NC(=O)[C@H](Cc3ccc(-c4ccccc4)cc3)NC(=O)[C@H](CC(C)C)NC2=O)c1` (stereo partly drawn) [Example 2324] ({CH2CO}-Y(Carboxymethyl)[Phe(4-COOH)]D[Phe(3-Me)]L[Bip][Cit][NMeA][dL][Dab][Cha]V[Thr(3ξ)]C[Dab][Aun]-OH; thioether N-14) reads 12.8 nM.
Under `Cc1cccc(C[C@@H]2NC(=O)[C@H](CC(=O)O)NC(=O)[C@H](Cc3ccc(C(=O)O)cc3)NC(=O)[C@H](Cc3ccc(OCC(=O)O)cc3)NC(=O)CSC[C@@H](C(=O)NCCOCCOCC(=O)NCCCCCCCCCCC(=O)O)NC(=O)[C@H](C(C)O)NC(=O)[C@H](C(C)C)NC(=O)[C@H](CC3CCCCC3)NC(=O)[C@H](CCN)NC(=O)[C@@H](CC(C)C)NC(=O)[C@H](C)N(C)C(=O)[C@H](C(C)C)NC(=O)[C@H](Cc3ccc(-c4ccccc4)cc3)NC(=O)[C@H](CC(C)C)NC2=O)c1` (stereo partly drawn) [Example 2325] ({CH2CO}-Y(Carboxymethyl)[Phe(4-COOH)]D[Phe(3-Me)]L[Bip]V[NMeA][dL][Dab][Cha]V[Thr(3ξ)]C[AEEA][Aun]-OH; thioether N-14) stands 30 nM; under `Cc1cccc(C[C@@H]2NC(=O)[C@H](CC(=O)O)NC(=O)[C@H](Cc3ccc(C(=O)O)cc3)NC(=O)[C@H](Cc3ccc(OCC(=O)O)cc3)NC(=O)CSC[C@@H](C(=O)N[C@H](CC(N)=O)C(=O)NCCCCCCCCCCC(=O)O)NC(=O)[C@H](C(C)O)NC(=O)[C@H](C(C)C)NC(=O)[C@H](CC3CCCCC3)NC(=O)[C@H](CCN)NC(=O)[C@@H](CC(C)C)NC(=O)[C@H](C)N(C)C(=O)[C@H](C(C)C)NC(=O)[C@H](Cc3ccc(-c4ccccc4)cc3)NC(=O)[C@H](CC(C)C)NC2=O)c1` (stereo partly drawn) [Example 2326] ({CH2CO}-Y(Carboxymethyl)[Phe(4-COOH)]D[Phe(3-Me)]L[Bip]V[NMeA][dL][Dab][Cha]V[Thr(3ξ)]C[dN][Aun]-OH; thioether N-14), 41.3 nM; under `Cc1cccc(C[C@@H]2NC(=O)[C@H](CC(=O)O)NC(=O)[C@H](Cc3ccc(C(=O)O)cc3)NC(=O)[C@H](Cc3ccc(OCC(=O)O)cc3)NC(=O)CSC[C@@H](C(=O)N[C@H](CC(N)=O)C(=O)NCCCCCCCCCCC(=O)O)NC(=O)[C@H](C(C)O)NC(=O)[C@H](C(C)C)NC(=O)[C@H](CC3CCCCC3)NC(=O)[C@H](CCN)NC(=O)[C@@H](CC(C)C)NC(=O)[C@H](C)N(C)C(=O)[C@H](CCCNC(N)=O)NC(=O)[C@H](Cc3ccc(-c4ccccc4)cc3)NC(=O)[C@H](CC(C)C)NC2=O)c1` (stereo partly drawn) [Example 2327] ({CH2CO}-Y(Carboxymethyl)[Phe(4-COOH)]D[Phe(3-Me)]L[Bip][Cit][NMeA][dL][Dab][Cha]V[Thr(3ξ)]C[dN][Aun]-OH; thioether N-14), 13 nM.
The result for `CCC(C)[C@@H]1NC(=O)[C@H](Cc2ccc(-c3ccccc3)cc2)NC(=O)[C@H](C(C)C)NC(=O)[C@H](Cc2cccc(C)c2)NC(=O)[C@H](CC(=O)O)NC(=O)[C@H](Cc2ccc(OCC(=O)O)cc2)NC(=O)[C@H](C(C)O)NC(=O)CSC[C@@H](C(=O)NCCOCCOCC(=O)NCCCCCCCCCCC(=O)O)NC(=O)[C@H](C(C)O)NC(=O)[C@H](C(C)C)NC(=O)[C@H](CC2CCCCC2)NC(=O)[C@H](CCN)NC(=O)[C@@H](CC(C)C)NC(=O)[C@H](C)N(C)C1=O` (stereo partly drawn) [Example 2328] ({CH2CO}-[Thr(3ξ)]Y(Carboxymethyl)D[Phe(3-Me)]V[Bip][Ile(3ξ)][NMeA][dL][Dab][Cha]V[Thr(3ξ)]C[AEEA][Aun]-OH; thioether N-14) reads 19.5 nM; that for `Cc1cccc(C[C@@H]2NC(=O)[C@H](CC(=O)O)NC(=O)[C@H](Cc3ccc(C(=O)O)cc3)NC(=O)[C@H](Cc3ccc(OCC(=O)O)cc3)NC(=O)CSC[C@@H](C(=O)NCCCCCCCCCCC(=O)O)NC(=O)[C@H](C(C)O)NC(=O)[C@H](C(C)C)NC(=O)[C@H](CC3CCCCC3)NC(=O)[C@H](CCN)NC(=O)[C@@H](CC(C)C)NC(=O)[C@H](C)N(C)C(=O)[C@H](Cc3ccc(O)cc3)NC(=O)[C@H](Cc3ccc(-c4ccccc4)cc3)NC(=O)[C@H](CC(C)C)NC2=O)c1` (stereo partly drawn) [Example 2329] ({CH2CO}-Y(Carboxymethyl)[Phe(4-COOH)]D[Phe(3-Me)]L[Bip]Y[NMeA][dL][Dab][Cha]V[Thr(3ξ)]C[Aun]-OH; thioether N-14), 195 nM.
As for `Cc1cccc(C[C@@H]2NC(=O)[C@H](CC(=O)O)NC(=O)[C@H](Cc3ccc(C(=O)O)cc3)NC(=O)[C@H](Cc3ccc(OCC(=O)O)cc3)NC(=O)CSC[C@@H](C(=O)NCCCCCCCCCCC(=O)O)NC(=O)[C@H](C(C)O)NC(=O)[C@H](C(C)C)NC(=O)[C@H](CC3CCCCC3)NC(=O)[C@H](CCN)NC(=O)[C@@H](CC(C)C)NC(=O)[C@H](C)N(C)C(=O)[C@H](CCCNC(N)=O)NC(=O)[C@H](Cc3ccc(-c4ccccc4)cc3)NC(=O)[C@H](CC(C)C)NC2=O)c1` (stereo partly drawn) [Example 2330] ({CH2CO}-Y(Carboxymethyl)[Phe(4-COOH)]D[Phe(3-Me)]L[Bip][Cit][NMeA][dL][Dab][Cha]V[Thr(3ξ)]C[Aun]-OH; thioether N-14), the IC50 turned out to be 38.1 nM.
Under `Cc1cccc(C[C@@H]2NC(=O)[C@H](CC(=O)O)NC(=O)[C@H](Cc3ccc(C(=O)O)cc3)NC(=O)[C@H](Cc3ccc(OCC(=O)O)cc3)NC(=O)CSC[C@@H](C(=O)NCCCCCCCCCCC(=O)O)NC(=O)[C@H](C(C)O)NC(=O)[C@H](C(C)C)NC(=O)[C@H](CC3CCCCC3)NC(=O)[C@H](CCN)NC(=O)[C@@H](CC(C)C)NC(=O)[C@H](C)N(C)C(=O)[C@H](Cc3ccc(O)cc3)NC(=O)[C@H](Cc3ccc(-c4ccccc4)cc3)NC(=O)[C@H](Cc3ccc(O)cc3)NC2=O)c1` (stereo partly drawn) [Example 2331] ({CH2CO}-Y(Carboxymethyl)[Phe(4-COOH)]D[Phe(3-Me)]Y[Bip]Y[NMeA][dL][Dab][Cha]V[Thr(3ξ)]C[Aun]-OH; thioether N-14) stands 160 nM; under `Cc1cccc(C[C@@H]2NC(=O)[C@H](CC(=O)O)NC(=O)[C@H](Cc3ccc(C(=O)O)cc3)NC(=O)[C@H](Cc3ccc(OCC(=O)O)cc3)NC(=O)CSC[C@@H](C(=O)NCCCCCCCCCCC(=O)O)NC(=O)[C@H](C(C)O)NC(=O)[C@H](C(C)C)NC(=O)[C@H](CC3CCCCC3)NC(=O)[C@H](CCN)NC(=O)[C@@H](CC(C)C)NC(=O)[C@H](C)N(C)C(=O)[C@H](Cc3ccc(C(=O)O)cc3)NC(=O)[C@H](Cc3ccc(-c4ccccc4)cc3)NC(=O)[C@H](CC(C)C)NC2=O)c1` (stereo partly drawn) [Example 2332] ({CH2CO}-Y(Carboxymethyl)[Phe(4-COOH)]D[Phe(3-Me)]L[Bip][Phe(4-COOH)][NMeA][dL][Dab][Cha]V[Thr(3ξ)]C[Aun]-OH; thioether N-14), 343 nM.
The result for `Cc1cccc(C[C@@H]2NC(=O)[C@H](CC(=O)O)NC(=O)[C@H](Cc3ccc(OCC(=O)O)cc3)NC(=O)[C@H](Cc3ccc(OCC(=O)O)cc3)NC(=O)CSC[C@@H](C(=O)N[C@@H](CN)C(=O)NCCCCCCCCCCC(=O)O)NC(=O)[C@H](C(C)O)NC(=O)[C@H](C(C)C)NC(=O)[C@H](CC3CCCCC3)NC(=O)[C@H](CCN)NC(=O)[C@@H](CC(C)C)NC(=O)[C@H](C)N(C)C(=O)[C@H](C(C)C)NC(=O)[C@H](Cc3ccc(-c4ccccc4)cc3)NC(=O)[C@H](CC(C)C)NC2=O)c1` (stereo partly drawn) [Example 2333] ({CH2CO}-Y(Carboxymethyl)Y(Carboxymethyl)D[Phe(3-Me)]L[Bip]V[NMeA][dL][Dab][Cha]V[Thr(3ξ)]C[Dap][Aun]-OH; thioether N-14) reads 23.5 nM.
Under `Cc1cccc(C[C@@H]2NC(=O)[C@H](CC(=O)O)NC(=O)[C@H](Cc3ccc(OCC(=O)O)cc3)NC(=O)[C@H](Cc3ccc(OCC(=O)O)cc3)NC(=O)CSC[C@@H](C(=O)N[C@@H](CN)C(=O)NCCCCCCCCCCC(=O)O)NC(=O)[C@H](C(C)O)NC(=O)[C@H](C(C)C)NC(=O)[C@H](CC3CCCCC3)NC(=O)[C@H](CCN)NC(=O)[C@@H](CC(C)C)NC(=O)[C@H](C)N(C)C(=O)[C@H](CCCNC(N)=O)NC(=O)[C@H](Cc3ccc(-c4ccccc4)cc3)NC(=O)[C@H](CC(C)C)NC2=O)c1` (stereo partly drawn) [Example 2334] ({CH2CO}-Y(Carboxymethyl)Y(Carboxymethyl)D[Phe(3-Me)]L[Bip][Cit][NMeA][dL][Dab][Cha]V[Thr(3ξ)]C[Dap][Aun]-OH; thioether N-14) stands 22.8 nM; under `Cc1cccc(C[C@@H]2NC(=O)[C@H](CC(=O)O)NC(=O)[C@H](Cc3ccc(C(=O)O)cc3)NC(=O)[C@H](Cc3ccc(OCC(=O)O)cc3)NC(=O)CSC[C@@H](C(=O)N[C@@H](CCN)C(=O)NCCCCCCCCCCC(=O)O)NC(=O)[C@H](C(C)O)NC(=O)[C@H](C(C)C)NC(=O)[C@H](CC3CCCCC3)NC(=O)[C@H](CCN)NC(=O)[C@@H](CC(C)C)NC(=O)[C@H](C)N(C)C(=O)[C@H](Cc3ccc(C(=O)O)cc3)NC(=O)[C@H](Cc3ccc(-c4ccccc4)cc3)NC(=O)[C@H](CC(C)C)NC2=O)c1` (stereo partly drawn) [Example 2335] ({CH2CO}-Y(Carboxymethyl)[Phe(4-COOH)]D[Phe(3-Me)]L[Bip][Phe(4-COOH)][NMeA][dL][Dab][Cha]V[Thr(3ξ)]C[Dab][Aun]-OH; thioether N-14), 47.4 nM.
